In US9943482B2, “Milk-derived microvesicle compositions and related methods” (UNIVERSITY OF LOUISVILLE RESEARCH FOUNDATION, INC., priority 2013, dated 2018):
Read-outs that look alike come from different tables or passages of the source.

How the values were obtained:
[1] = Loading of therapeutic agents into bovine milk-derived exosomes; format: physicochemical
Procedure: (§1) Several procedures were developed to load therapeutic agents onto the milk- or colostrum-derived exosomes. […] In one preferred embodiment, incubation of exosomes in PBS with test agents in the presence of 10% ethanol or 10% ethanol:acetonitrile (1:1) allowed for increased loading of therapeutic agents into the exosomes. The agents utilized in those studies included curcumin, withaferin A, demethoxycurcumin, delphinidin, cyanidin, a native mixture of (five) anthocyanidins from bilberry, punicalagin, and tanshinone II. The chemotherapeutic agents doxorubicin, paclitaxel, and docetaxel were also loaded in the exosomes. In this regard, it was observed that the exosomes accepted both hydrophobic (paclitaxel, docetaxel, curcumin, withaferin A, tanshinone II) and hydrophilic agents (berry anthocyanidins, punicalagin) with a loading efficiency of 4% to 65% with respect to exosomal proteins, as determined by measurement of the drug and exosomal protein contents (Tables IV and V). Sucrose density gradient ultracentrifugation confirmed the presence of drugs embedded in the exosomes (FIGS. 5-8). When tested for in vitro release using dialysis tubes against buffer containing the surfactant, Tween-80 [47] at 37° C., PAC and WFA were released time-dependently—20%, 43% and 70% PAC in 2, 6 and 19 h, and 12%, 40% and 58% WFA in 1, 4, and 24 h, respectively (FIGS. 10, 11A, and 11B).

[2] = In vitro release from loaded exosomes, dialysis tubes against buffer with Tween-80 at 37° C.; format: physicochemical
Procedure: as §1

[3] = 3 mg chemo. drug, 30 mg exosomal protein (Sample A)
[4] = 6 mg chemo. drug, 30 mg exosomal protein (Sample B)
[5] = 9 mg chemo. drug, 30 mg exosomal protein (Sample C)
[6] = 12 mg chemo. drug, 30 mg exosomal protein (Sample D)
[7] = 18 mg chemo. drug, 30 mg exosomal protein (Sample E)

In the case of CC1=C(CO)C(=O)O[C@@H]([C@@H](C)[C@H]2CC[C@H]3[C@@H]4C[C@H]5O[C@]56[C@@H](O)C=CC(=O)[C@]6(C)[C@H]4CC[C@]23C)C1 [Withaferin A, withaferin A], the “% Drug load” value ([1]; 5 mg agent, 50 mg exosomal protein (Sample A)) is reported as 3.8%, the “% Drug load” value ([1]; 10 mg agent, 50 mg exosomal protein (Sample B)) is reported as 8.6% and the “% Drug load” value ([1]; 20 mg agent, 50 mg exosomal protein (Sample C)) is reported as 31.4%. The “% Drug load” value ([1]; 25 mg agent, 50 mg exosomal protein (Sample D)) was 44.8%, the “in vitro release from exosomes” value ([2]; 1 h) was 12% and the “in vitro release from exosomes” value ([2]; 4 h) was 40%. For the same compound, the “in vitro release from exosomes” value ([2]; 24 h) was 58% and the “stability of agent extracted from residual material of the release study” value ([2]; HPLC or UV spectral analysis) was “stable during the workup”.
For CC(=O)O[C@H]1C(=O)[C@@]2(C)[C@H]([C@H](OC(=O)c3ccccc3)[C@]3(O)C[C@H](OC(=O)[C@H](O)[C@@H](NC(=O)c4ccccc4)c4ccccc4)C(C)=C1C3(C)C)[C@]1(OC(C)=O)CO[C@@H]1C[C@@H]2O [Paclitaxel, paclitaxel], the “% Drug load” value [1, 3] was 15.7%, the “% Drug load” value [1, 4] was 20.3% and the “% Drug load” value [1, 5] was 14.9%. For the same compound, the “% Drug load” value [1, 6] was 36.6%, the “% Drug load” value [1, 7] was 64.6% and the “stability of agent extracted from residual material of the release study” value [2] was “stable during the workup”. The “in vitro release from exosomes” value ([2]; 2 h) was 20%, the “in vitro release from exosomes” value ([2]; 6 h) was 43% and the “in vitro release from exosomes” value ([2]; 19 h) was 70%.
For CC(=O)O[C@@]12CO[C@@H]1C[C@H](O)[C@@]1(C)C(=O)[C@H](O)C3=C(C)[C@@H](OC(=O)[C@H](O)[C@@H](NC(=O)OC(C)(C)C)c4ccccc4)C[C@@](O)([C@@H](OC(=O)c4ccccc4)[C@H]21)C3(C)C [Docetaxel, docetaxel], the “% Drug load” value [1, 3] was 6.0%, the “% Drug load” value [1, 4] was 17.7% and the “% Drug load” value [1, 5] was 34.5%. The “% Drug load” value [1, 6] was 49.1%, the “% Drug load” value [1, 7] was 55.1% and the “stability of agent extracted from residual material of the release study” value [2] was “stable during the workup”.
